Reference: the METLIN SMRT retention time set (Domingo-Almenara et al. 2019)

assay: gradient 5% acetonitrile 3 min, to 50% in 2 min, to 85% in 15 min, held 3 min, 100 µL/min; conditions: column: Zorbax Extend-C18 2.1 x 50 mm; eluents: water / acetonitrile, 0.1% formic acid
Summary of the method: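 Each retention time is based on an adduct peak selected computationally and verified by manual inspection. Measurements used HPLC–quadrupole time-of-flight mass spectrometry in positive and negative ionization mode on mixtures of ~100 pure standards. Chromatography ran on a Zorbax Extend-C18 column (2.1 × 50 mm, 1.8 μm) at 100 μL/min with water and acetonitrile, each containing 0.1% formic acid, and dead and dwell volumes of 40 μL and 900 μL.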

SMILES	RP-LC retention time
Cc1cnc(C(=O)N2[C@H]3CC[C@@H]2c2cnc(-c4ccc(F)cc4)nc2C3)cn1	874 s
O=C(NCc1ccccc1)C1CCN(Cc2nncn2-c2ccccc2F)CC1	570 s
CC(C)(C)C1=NN=C2c3ccccc3C(=O)C21 (stereo not given)	852 s
COc1ccc(N2CC(c3noc(-c4cc(OC)c(OC)c(OC)c4)n3)CC2=O)cc1OC (stereo not given)	813 s
O=S(=O)(Cc1ccc(-c2nc(-c3ccccc3)no2)o1)c1ccccc1	1010 s
COc1ccc(-c2nc(C3CC(=O)N(c4ccc(OC)c(OC)c4)C3)no2)cc1F (stereo not given)	853 s
Cc1ccnc(OCC(=O)NC(C)C)n1	586 s
COc1cc2c(cc1Oc1ccc(OC)c3c1CC1c4c(cc(OC)c(OC)c4-3)CCN1C)CC1c3c(cc(OC)c(OC)c3-2)CCN1C (stereo not given)	616 s
CCOc1c(Br)cc(C(=O)Nc2ccc(C(=O)O)cc2)cc1C(=O)c1ccc(C)cc1	1130 s
Cc1ncc([N+](=O)[O-])n1CCOC(N)=O	624 s
CC1Oc2ccc(-c3csc(NC(=O)COc4ccc(Cl)cc4)n3)cc2NC1=O (stereo not given)	966 s
c1ccc(-c2noc(-c3cccnc3N3CCN(c4ccccc4)CC3)n2)cc1	1280 s
O=C(CCc1c(-c2ccc(Cl)cc2)nc2ccccn12)NCCCc1ccccc1	719 s
O=C(O)C(Cc1ccccc1)NS(=O)(=O)c1ccc(Cl)c(C(F)(F)F)c1 (stereo not given)	887 s
CC(C)NC(=O)N(C1CC1)C1CCOC2(CCN(C(=O)C3CCCC3)CC2)C1 (stereo not given)	814 s
Cc1ccccc1Nc1c(-c2ccc(N(C)C)cc2)nc2ccccn12	767 s
Cc1nc(-c2cn(C)c3ncccc23)sc1C(=O)NCc1ccc(F)cc1F	887 s
O=c1[nH]c2cc(Br)cnc2[nH]c1=O	553 s
Cn1c(=O)n(C)c2cc(NS(=O)(=O)c3ccc(F)cc3)c(Cl)cc21	726 s
Cc1cc(C)n(CCNC(=O)c2ccc(N3CCOCC3)nn2)n1	572 s
COc1cc(-c2ccc(F)cc2)nc2ccc(NS(=O)(=O)c3ccccc3)cc12	754 s
Cc1nc(N)nc(Cl)c1CCC1OCCO1	673 s
CCN1C(=O)C2CC3(CCN(Cc4ccc5cc[nH]c5c4)CC3)CN2C1=O (stereo not given)	621 s
O=C(NCc1ccccc1C(F)(F)F)c1cnc(-c2ccccc2)nc1-c1ccncc1	924 s
CC1CN(C(=O)c2cccc3c2-c2ccccc2C3=O)CC(C)O1 (stereo not given)	754 s
Cc1ccc(S(=O)(=O)NCCc2nc(-c3cccc(-c4ccnn4C)c3)no2)cc1	917 s

SMILES	RP-LC retention time
CC(C)C(=O)N1CCC(N2C[C@H](O)C[C@H]2C(=O)NC2CCCCC2)CC1	603 s
CC(C)(NC(=O)C1CCC1)c1nc2c(c(C(N)=O)n1)OCCO2	586 s
Cc1nc(-c2cc(S(=O)(=O)N3CCCCC3)c(C)n2C)sc1C	1140 s
CCCN(CCC)C(=O)Cn1c(CO)nc2ccccc21	623 s
COC(=O)Cn1nc2ccc(S(=O)(=O)N3CCSCC3)cn2c1=O	711 s
O=C(c1ccc(F)c(F)c1)N1CCc2[nH]cnc2C1c1ccccc1 (stereo not given)	652 s
Cc1ccc(-c2cn3c(CC(=O)N4CCc5ccccc54)csc3n2)cc1C	901 s
CCc1cccc2[nH]c3cc([N+](=O)[O-])ccc3c12	1180 s
Cc1cc(C(=O)N2CCOCC2)nn1CC(=O)NCc1ccc2c(c1)OCO2	634 s
O=C1C2N=NN(Cc3nc(-c4ccccc4Cl)no3)C2C(=O)N1c1ccc2c(c1)OCO2 (stereo not given)	1020 s
O=S(=O)(Nc1ccc(F)cc1)c1cccc2cccnc12	792 s
Cc1ccc(-c2csc(NC3OC(=O)c4ccccc43)n2)cc1C (stereo not given)	808 s
c1cc(CN2CC(Oc3ccc(-c4noc(C5CC5)n4)cc3)C2)cs1	700 s
O=C(C1CCN(c2cncnc2N2CCOCC2)CC1)N1CCC(Cc2ccccc2)CC1	700 s
Cc1cnc2n(c1=O)C(CC(=O)NCCc1ccc(S(N)(=O)=O)cc1)CS2 (stereo not given)	575 s
Cc1cc(N2CCCCCC2)n2nc(CN3CCN(C(C)C)CC3)nc2n1	555 s
Cn1cc2c(n1)c(=O)n(Cc1ccc(F)cc1)c(=O)n2CC(=O)Nc1cc(F)ccc1F	841 s
Cc1ccc(S(=O)(=O)N2CC(=O)N(C3CCCCC3)C(C)(C(=O)NCc3ccccc3)C2)cc1 (stereo not given)	1100 s
CCC(=O)N1CCc2c([nH]c3ccccc23)C12C(=O)N(C)c1ccccc12 (stereo not given)	828 s
O=S(=O)(Nc1ccc(Cn2cncn2)cc1)c1cc(F)cc(F)c1	708 s
COc1c(O)ccc2c1CN1CCc3cc4c(cc3C1C2)OCO4 (stereo not given)	688 s
CC(C)NC(=O)CC1Sc2ncccc2N(C)C1=O (stereo not given)	604 s
Cc1ccccc1NS(=O)(=O)c1cc(-c2[nH]ncc2C(=O)N2CCOCC2)oc1C	678 s
CNCC[C@@H](Oc1ccccc1C)c1ccccc1	728 s
O=C(CN1CCN(c2ccccc2)CC1)Nc1nc(-c2ccc(Cl)cc2)cs1	834 s
CC(C)NC(=O)N1CCCC1c1noc(CCC(=O)NC2CC2)n1 (stereo not given)	603 s

Second part, the compound after the results:

RP-LC retention time	SMILES
992 s	CCC(CC)C(=O)Nc1nc(-c2ccc3c(c2)N(C)C(=O)C(C)O3)cs1 (stereo not given)
731 s	CCOc1ccc(S(=O)(=O)NCCn2nc(C)cc2C)cc1F
683 s	Cc1cccc(NS(=O)(=O)c2cc(-c3[nH]ncc3C(=O)N3CCOCC3)oc2C)c1
825 s	COc1ncc(C(=O)Nc2ccc(F)c(Cl)c2)c(C)n1
714 s	CCN(CC)C(=O)c1ccc2c(c1)nnn2CCNC(=O)Nc1cc(F)ccc1F
815 s	CC(=O)c1ccc(NC(=O)c2cccc(N3C(=O)NC4CC3(C)Oc3ccccc34)c2)cc1 (stereo not given)
792 s	Cc1ccccc1NC(=O)NC1CCN(c2ccc(F)cc2)C1=O (stereo not given)
863 s	CCOC(=O)c1sc(NC(=O)C2CCCN(S(C)(=O)=O)C2)nc1-c1ccccc1 (stereo not given)
834 s	CCN(CC)c1ccc(Nc2nc(-c3ccc(F)c(C)c3)cs2)cc1
817 s	O=C(NC1CCCCC1)C1CC(=O)N(CCc2c[nH]c3ccc(Cl)cc23)C1 (stereo not given)
745 s	O=C(Nc1ccccc1)C1CCc2nc(N3CCCCC3)ncc2C1 (stereo not given)
693 s	Cc1nc(N2CCN(CCO)CC2)nc2c1C(=O)CC(c1cccc(Cl)c1)C2 (stereo not given)
903 s	COC(=O)c1ccc2c(=O)n(-c3cc(OC)cc(OC)c3)c(N3CCOCC3)nc2c1
634 s	CC(=O)Nc1ccc(NC(=O)C2CC(=O)N(c3n[nH]c4cccc(F)c34)C2)cc1 (stereo not given)
1030 s	CCn1nc(C)c2c(-c3ccccc3)cc(OC(C)C(=O)Nc3ccc4c(c3)OCO4)nc21 (stereo not given)
1060 s	COc1cccc(Nc2nc(C)c(C(=O)Nc3ccc(F)c(Cl)c3)s2)c1
681 s	COCCNC(=O)c1nc(Nc2ccc(F)cc2)c2ccccc2n1
628 s	Cc1ccc(S(=O)(=O)NC2CCN(c3ncnc4c3CCC4)C2)cc1 (stereo not given)
849 s	CCc1cc(=O)n(CC(=O)Nc2ccc(C(F)(F)F)cc2)c(N2CCOCC2)n1

RP-LC retention time	SMILES
682 s	CC(C)Cn1c(=O)c(N2CCN(C(=O)c3ccccc3Cl)CC2)nc2ccncc21
632 s	Cc1cccc(C)c1NC(=O)Cn1nc2n(c1=O)CCCC2
1180 s	CCOc1ccccc1NC(=O)N1c2ccccc2CC1c1nc(C2CC2)no1 (stereo not given)
963 s	CC1Oc2ccc(-c3csc(NC(=O)C(C)(C)C)n3)cc2N(C)C1=O (stereo not given)
644 s	CCNC(=O)C1CCCN(c2nc3ncn(CC(=O)Nc4ccccc4)c(=O)c3s2)C1 (stereo not given)
1100 s	CCCCNc1cc(C)nc2nc(-c3ccc(C(C)(C)C)cc3)nn12
771 s	Cc1cc(-c2nnc(-c3ccc(F)cc3)o2)c(C)n1CC(=O)NCC1CCCO1 (stereo not given)
857 s	COCC(=O)Nc1cnc(-c2ccc(Cl)cc2)nc1
706 s	CCCCNC(=O)c1cc(NS(=O)(=O)c2ccc(C(C)(C)C)cc2)cnc1N1CCNCC1
584 s	O=C(Nc1ccc2c(c1)OCCO2)C1CCCN(C(=O)c2cc(-c3ccncc3)n[nH]2)C1 (stereo not given)
844 s	Cc1cccc(NC(=O)C2CCN(S(C)(=O)=O)c3ccccc3O2)c1C (stereo not given)
1030 s	CC1(C)CC(=O)c2cn(-c3ccccc3)c(=O)c(C(=O)Nc3cccc(C#N)c3)c2C1
660 s	CCN(CC)c1ncc2c(n1)CCC(C(=O)Nc1cccc(C(=O)OC)c1)C2 (stereo not given)
677 s	CCNc1nc(C)cc(N2CCN(S(=O)(=O)c3ccc(OC)cc3)CC2)n1
690 s	CC(=O)N1CCc2cc(N3CC(C(=O)NCc4cc(F)cc(F)c4)CC3=O)ccc21 (stereo not given)
639 s	Cc1cc(C(=O)N2CC(c3nc(-c4ccccn4)no3)C2)no1
733 s	Cc1cc2c(cc1NC(=O)C1CCC(C)CC1)n(C)c(=O)c(=O)n2C (stereo not given)
712 s	CCC(=O)Nc1ccc(S(=O)(=O)NC2CCN(c3ccc(=O)n(CC4CC4)n3)C2)cc1 (stereo not given)
866 s	CCOC(=O)CNC(=O)Nc1ccccc1-c1cc2ccccc2[nH]1
